Experimental data from ChEMBL document CHEMBL3217717, “Synthesis and antiproliferative activity of novel erythromycin derivatives” (Medchemcomm, 2010).

Tests used:
[1] = Cell cycle arrest in human HT1080 cells assessed as accumulation at G0/G1 phase at 2 times IC50 after 24 hrs by propidium iodide staining-based flow cytometric analysis (reference value: 49.18%); assay type: functional; conditions: HT-1080
[2] = Cell cycle arrest in human HT1080 cells assessed as accumulation at S phase at 0.5 times IC50 after 24 hrs by propidium iodide staining-based flow cytometric analysis (reference value: 21.01%); assay type: functional; conditions: HT-1080
[3] = Cell cycle arrest in human HT1080 cells assessed as accumulation at G0/G1 phase at IC50 after 24 hrs by propidium iodide staining-based flow cytometric analysis (reference value: 49.18%); assay type: functional; conditions: HT-1080
[4] = Cell cycle arrest in human HT1080 cells assessed as accumulation at G2/M phase at IC50 after 48 hrs by propidium iodide staining-based flow cytometric analysis (reference value: 31.39%); assay type: functional; conditions: HT-1080
[5] = Cell cycle arrest in human HT1080 cells assessed as accumulation at subG1 phase at 0.5 times IC50 after 24 hrs by propidium iodide staining-based flow cytometric analysis (reference value: 0.82%); assay type: functional; conditions: HT-1080
[6] = Cell cycle arrest in human HT1080 cells assessed as accumulation at G2/M phase at 0.5 times IC50 after 48 hrs by propidium iodide staining-based flow cytometric analysis (reference value: 31.39%); assay type: functional; conditions: HT-1080
[7] = Cell cycle arrest in human HT1080 cells assessed as accumulation at subG1 phase at 0.5 times IC50 after 48 hrs by propidium iodide staining-based flow cytometric analysis (reference value: 1.86%); assay type: functional; conditions: HT-1080
[8] = Cell cycle arrest in human HT1080 cells assessed as accumulation at G0/G1 phase at IC50 after 48 hrs by propidium iodide staining-based flow cytometric analysis (reference value: 41.60%); assay type: functional; conditions: HT-1080
[9] = Cell cycle arrest in human HT1080 cells assessed as accumulation at G0/G1 phase after 24 to 48 hrs by propidium iodide staining-based flow cytometric analysis; assay type: functional; conditions: HT-1080
[10] = Cell cycle arrest in human HT1080 cells assessed as accumulation at G2/M phase at 0.5 times IC50 after 24 hrs by propidium iodide staining-based flow cytometric analysis (reference value: 23.71%); assay type: functional; conditions: HT-1080
[11] = Cell cycle arrest in human HT1080 cells assessed as accumulation at S phase at IC50 after 24 hrs by propidium iodide staining-based flow cytometric analysis (reference value: 21.01%); assay type: functional; conditions: HT-1080
[12] = Cell cycle arrest in human HT1080 cells assessed as accumulation at G0/G1 phase at 2 times IC50 after 48 hrs by propidium iodide staining-based flow cytometric analysis (reference value: 41.60%); assay type: functional; conditions: HT-1080
[13] = Cytotoxicity against human SGC7901 cells assessed as growth inhibition after 48 hrs by MTT assay; assay type: functional, cell-based; conditions: SGC-7901, 48 h
[14] = Cytotoxicity against human HT1080 cells assessed as growth inhibition after 48 hrs by MTT assay; assay type: functional, cell-based; conditions: HT-1080, 48 h
[15] = Cell cycle arrest in human HT1080 cells assessed as accumulation at subG1 phase at IC50 after 48 hrs by propidium iodide staining-based flow cytometric analysis (reference value: 1.86%); assay type: functional; conditions: HT-1080
[16] = Cell cycle arrest in human HT1080 cells assessed as accumulation at subG1 phase at 2 times IC50 after 24 hrs by propidium iodide staining-based flow cytometric analysis (reference value: 0.82%); assay type: functional; conditions: HT-1080
[17] = Cell cycle arrest in human HT1080 cells assessed as accumulation at subG1 phase at IC50 after 24 hrs by propidium iodide staining-based flow cytometric analysis (reference value: 0.82%); assay type: functional; conditions: HT-1080
[18] = Cell cycle arrest in human HT1080 cells assessed as accumulation at G2/M phase at 2 times IC50 after 24 hrs by propidium iodide staining-based flow cytometric analysis (reference value: 23.71%); assay type: functional; conditions: HT-1080
[19] = Cell cycle arrest in human HT1080 cells assessed as accumulation at G2/M phase at 2 times IC50 after 48 hrs by propidium iodide staining-based flow cytometric analysis (reference value: 31.39%); assay type: functional; conditions: HT-1080
[20] = Cell cycle arrest in human HT1080 cells assessed as accumulation at S phase at IC50 after 48 hrs by propidium iodide staining-based flow cytometric analysis (reference value: 15.11%); assay type: functional; conditions: HT-1080
[21] = Cell cycle arrest in human HT1080 cells assessed as accumulation at subG1 phase at 2 times IC50 after 48 hrs by propidium iodide staining-based flow cytometric analysis (reference value: 1.86%); assay type: functional; conditions: HT-1080
[22] = Cell cycle arrest in human HT1080 cells assessed as accumulation at G0/G1 phase at 0.5 to 2 times IC50 by propidium iodide staining-based flow cytometric analysis; assay type: functional; conditions: HT-1080, TDE = time-dependent effect
[23] = Cell cycle arrest in human HT1080 cells assessed as accumulation at S phase at 0.5 times IC50 after 48 hrs by propidium iodide staining-based flow cytometric analysis (reference value: 15.11%); assay type: functional; conditions: HT-1080
[24] = Cell cycle arrest in human HT1080 cells assessed as accumulation at G0/G1 phase at 0.5 times IC50 after 48 hrs by propidium iodide staining-based flow cytometric analysis (reference value: 41.60%); assay type: functional; conditions: HT-1080
[25] = Cell cycle arrest in human HT1080 cells assessed as accumulation at G0/G1 phase at 0.5 times IC50 after 24 hrs by propidium iodide staining-based flow cytometric analysis (reference value: 49.18%); assay type: functional; conditions: HT-1080
[26] = Cell cycle arrest in human HT1080 cells assessed as accumulation at G2/M phase at IC50 after 24 hrs by propidium iodide staining-based flow cytometric analysis (reference value: 23.71%); assay type: functional; conditions: HT-1080
[27] = Cell cycle arrest in human HT1080 cells assessed as accumulation at S phase at 2 times IC50 after 48 hrs by propidium iodide staining-based flow cytometric analysis (reference value: 15.11%); assay type: functional; conditions: HT-1080
[28] = Cell cycle arrest in human HT1080 cells assessed as accumulation at S phase at 2 times IC50 after 24 hrs by propidium iodide staining-based flow cytometric analysis (reference value: 21.01%); assay type: functional; conditions: HT-1080
KB = assay: Cytotoxicity against human KB cells assessed as growth inhibition after 48 hrs by MTT assay; assay type: functional, cell-based
[29] = Cell cycle arrest in human HT1080 cells assessed as accumulation at G0/G1 phase after 24 hrs by propidium iodide staining-based flow cytometric analysis; assay type: functional; conditions: HT-1080

| SMILES | Activity [1] [%] | Activity [2] [%] | Activity [3] [%] | Activity [4] [%] | Activity [5] [%] | Activity [6] [%] | Activity [7] [%] | Activity [8] [%] | Activity [10] [%] | Activity [11] [%] | Activity [12] [%] | IC50 [13] [µM] | IC50 [14] [µM] | Activity [15] [%] | Activity [16] [%] | Activity [17] [%] | Activity [18] [%] | Activity [19] [%] | Activity [20] [%] | Activity [21] [%] | also measured |
| --- | --- | --- | --- | --- | --- | --- | --- | --- | --- | --- | --- | --- | --- | --- | --- | --- | --- | --- | --- | --- | --- |
| CC[C@H]1OC(=O)[C@H](C)[C@@H](O[C@H]2C[C@@](C)(OC)[C@@H](O)[C@H](C)O2)[C@H](C)[C@@H](O[C@@H]2O[C@H](C)C[C@H](N(C)CCN(C)[C@H]3C[C@@H](C)O[C@@H](O[C@@H]4[C@@H](C)[C@H](O[C@H]5C[C@@](C)(OC)[C@@H](O)[C@H](C)O5)[C@@H](C)C(=O)O[C@H](CC)[C@@](C)(O)[C@H](O)[C@@H](C)/C(=N\O)[C@H](C)C[C@@]4(C)OC)[C@@H]3O)[C@H]2O)[C@](C)(OC)C[C@@H](C)/C(=N/O)[C@H](C)[C@@H](O)[C@]1(C)O | 75.1 | 18.1 | 62.7 | 12.8 | 0.6 | 15.3 | 0.75 | 71.9 | 17.4 | 15.9 | 74.5 | 7.8 | 5.3 | 0.77 | 0.85 | 0.77 | 11.9 | 10.1 | 12.6 | 2.47 | Activity [9]: Dose-dependent effect; Activity [22]: tde; Activity [23]: 13.7%; Activity [24]: 67.6%; Activity [25]: 62%; Activity [26]: 18.5%; Activity [27]: 11.5%; Activity [28]: 10.8%; IC50 (KB): 4.4 µM |
| CC[C@H]1OC(=O)[C@H](C)[C@@H](O[C@H]2C[C@@](C)(OC)[C@@H](O)[C@H](C)O2)[C@H](C)[C@@H](O[C@@H]2O[C@H](C)C[C@H](N(C)CCN(C)[C@H]3C[C@@H](C)O[C@@H](O[C@@H]4[C@@H](C)[C@H](O[C@H]5C[C@@](C)(OC)[C@@H](O)[C@H](C)O5)[C@@H](C)C(=O)O[C@H](CC)[C@@](C)(O)[C@H](O)[C@@H](C)/C(=N\O)[C@H](C)C[C@@]4(C)O)[C@@H]3O)[C@H]2O)[C@](C)(O)C[C@@H](C)/C(=N/O)[C@H](C)[C@@H](O)[C@]1(C)O | 66.6 | 16.5 | 71.2 | 10.8 | 1.41 | 10.1 | 1.34 | 77.3 | 14.4 | 13.9 | 48.7 | 21.7 | 8.6 | 1.34 | 8.14 | 2.01 | 12.5 | 17.9 | 9.35 | 15.7 | Activity [29]: Dose-dependent effect; Activity [23]: 6.94%; Activity [24]: 80%; Activity [25]: 66%; Activity [26]: 11.5%; Activity [27]: 14.8%; Activity [28]: 11.1%; IC50 (KB): 6.2 µM |
